Measured values taken from a melting point compilation (Tetko et al.; mined from patent text by program, amines drawn as free bases though some values may be those of a salt).

Compound | melting point [°C]
CC(C)(C)C1OC1C(O)c1ccc(F)cc1 (stereo not drawn) | 56 to 59
O=C1OC(c2ccccc2)CCN1Cc1ccccc1NS(=O)(=O)C(F)(F)F (stereo not drawn) | 152
CCc1scc(C(=O)O)c1N | 132 to 133
CCSc1ccc(-c2cccnc2)c2c1C(=O)CC(C)C2 (stereo not drawn) | 140 to 142
COc1ccc(-c2csc(C(=O)O)n2)cc1OC | 105 to 106
O=C(Nc1ccc(-n2nc(C(F)(F)F)cc2Br)cc1)c1ccncc1F | 143 to 144
Cc1cccc(NC(=O)c2cc([N+](=O)[O-])ccc2NC(=O)CF)c1C | 236 to 239
CCNC(=O)c1ccsc1 | 115 to 117
CC(=O)c1cc2c(cc1NC(=O)c1cccc3ccccc13)OCO2 | 143 to 144
O=Cc1c[nH]c(Cc2ccccc2)n1 | 130 to 136
CNc1nc(-c2cccc(NC(=O)c3cccnc3N3CCCC3)c2)c2cc(OC)c(OC)cc2n1 | 135 to 137
c1ccc(CN2CCN(c3ccnc4ccccc34)CC2)cc1 | 105 to 106
CCC(CC)Oc1cc(C)nc(Nc2c(C)cc(C)cc2C)c1C#N | 105 to 107
CCOCCOc1cc(N2C(=O)C3=C(CCCC3)C2=O)c(F)cc1C#N | 90
COc1ccc(N2CCN(C(=O)NCCN(C)C)CC2)cc1 | 79 to 82
Cc1nscc1C(=O)NC1CC1 | 106 to 108
CN(C)CCNc1cc(Cl)nc(-c2ccccc2)n1 | 140 to 145
Cc1c(C)c2c(c(C)c1N)CC(C)(CN1CCC(OCCCc3ccccc3)CC1)O2 (stereo not drawn) | 53 to 54
CCN(CC)c1ccc(C(=O)C(C)(C)N2CCOCC2)cc1 | 86 to 89
CCn1cnc2c(cnc3c2cnn3CC)c1=O | 167 to 169
Cc1oc(-c2ccco2)nc1CCOc1ccc(CC2SC(=O)NC2=O)cn1 (stereo not drawn) | 160 to 162
CCOC(=O)c1cn(CC)c2nc(Cl)ncc2c1=O | 156
c1ccc(N(c2ccccc2)c2ccsc2)cc1 | 79 to 82
Cc1nc(C)c(Cl)c(NCc2nccc(SCCCCBr)c2C)n1 | 127 to 128
Cc1ccc(N(C)N=C(N)C(N)=O)cc1OCC(F)(F)C(F)(F)F | 129 to 130
CCCCCCCCCCCCSCCCN(CCO)CCO | 53 to 54

Compound | melting point [°C]
CC(=O)OCCOc1ncc(Cl)c(N)c1Cl | 76 to 77
O=C1CCC(N2Cc3c(OCc4nc(CN5CCOCC5)cs4)cccc3C2=O)C(=O)N1 (stereo not drawn) | 218 to 220
CN(C)C(=O)Nc1cccc(CCC#N)c1 | 159 to 161
COC(=O)NCc1ccc2ccn(C3CCN(CCc4ccc(F)cc4)CC3)c2c1 | 117 to 118
CC(Cc1cccc2ccccc12)(Cc1cccc2ccccc12)C(=O)NC(C)(Cc1c[nH]c2ccccc12)C(=O)O (stereo not drawn) | 195 to 197
O=c1[nH]c(CSCc2ccccc2)nc2nccnc12 | 224 to 226
CCCCCCCCCCOc1ccc(-c2nc3ccc(C(=O)O)cc3o2)cc1C12CC3CC(CC(C3)C1)C2 | 200 to 201
CC(=O)OC1CSC(Sc2cccc(C#N)c2)C(OC(C)=O)C1OC(C)=O (stereo not drawn) | 133
CC(C)(C)c1ccc2c(c1)C=C(C(=O)O)C(C(F)(F)F)O2 (stereo not drawn) | 171 to 173
CNC(=NC#N)NCCSCc1noc(NC(=N)N)n1 | 185 to 188
COC(=O)CCC(=O)c1ccc(OCc2ccsc2)cc1O | 100 to 102
CNC1Oc2cc(Cl)cc(-c3ccccc3C)c2O1 (stereo not drawn) | > 250
Cc1cc(O)c(N)c([N+](=O)[O-])c1 | 197 to 199
CN1C(=O)C(C(=O)Nc2ccc(OC(F)(F)F)c(Cl)c2)C(=O)N(C)C1=O | 160
Nc1ccnn1-c1cccc(C(F)(F)F)c1 | 77 to 79
CN(C)c1ccc2nc(-c3csc4ccccc34)[nH]c(=O)c2c1 | > 300
Cc1ccccc1C(=O)Nc1ccc(C(=O)N2Cc3cc(Cl)ccc3Oc3ccccc32)cc1 | 207 to 208
COc1ccc2cc(-c3nc(-c4ccccc4)no3)c(=O)oc2c1 | 215
COc1ccc2nc(NC(=O)COC(=O)C(C)C)sc2c1 | 141 to 142
Cc1ccc(S(=O)(=O)N2CCNCCOCCOCCNCCN(S(=O)(=O)c3ccc(C)cc3)CC2)cc1 | 121
COc1cc(-c2ncn(C)c2-c2ccc(C(F)(F)F)cc2)cc(OC)c1OC | 168
CC(C)(C)OC(=O)N1CCN(c2c(F)cc(NC(=O)OCc3ccccc3)cc2F)CC1 | 171 to 172
OC(CNC(c1ccccc1)C(O)c1ccccc1)CNC(c1ccccc1)C(O)c1ccccc1 (stereo not drawn) | 155 to 175
CCOc1ccc(CC(=O)NCCc2ccc(OC(C)C)c(OC(C)C)c2)cc1OCC | 71
C=CC[C@H]1C[C@@](OS(C)(=O)=O)(C(=O)OC)C[C@@H](OC(=O)c2ccccc2)[C@@H]1OS(C)(=O)=O | 154 to 155
CNc1c(S(=O)(=O)C(F)(F)F)c(-c2ncon2)nn1-c1c(Cl)cc(C(F)(F)F)cc1Cl | 156 to 158

Compound | melting point [°C]
CN(Cc1ccc(C(=O)Nc2ccc(Nc3cc(-c4cccc5c4oc4ccccc45)ncn3)cc2)cc1)C(=O)OC(C)(C)C | 225 to 230
NNc1ncccc1-c1cccnc1 | 104 to 107
O=Cc1c(-c2ccccc2)nn(-c2ccccc2)c1-c1ccccc1 | 159 to 160
O=C(Nc1ccc(OCCN2CCOCC2)c2ccccc12)c1cc(F)cc(OC2CCCC2)c1 | 117 to 119
O=C(O)C1CCc2c(c3ccccc3n2C(=O)c2cccc(Cl)c2)C1 (stereo not drawn) | 179 to 181
CC(=O)c1ccc(-c2ccc(Br)cc2C)cc1 | 84 to 86
Cc1cccc(N2CCCCC2)c1NC(N)=S | 197 to 198
CCC(C)(Cc1c[nH]c2ccccc12)[N+](=O)[O-] (stereo not drawn) | 79.5 to 80
CN1CCN(C2=Nc3ccccc3Sc3nccn32)CC1 | 145 to 147
Cn1c([N+](=O)[O-])cnc1C=Cc1nnc(-c2ccccc2)s1 | 257
Cc1ccccc1-c1c(O)c2ccccc2[nH]c1=O | > 300
CC(C)c1cn(C(C)(C)C(=O)N(C)C)nc1-c1ccccc1 | 80.5 to 82.5
Cc1ncc2c(n1)N(CC(O)CO)C(=O)CO2 (stereo not drawn) | 70 to 72
CCCCc1nc2ncccc2n1Cc1ccc(-c2ccccc2C(=O)O)cc1 | 170
CCCCn1c(COCC)nc2c(N)nc3ccccc3c21 | 139 to 140
CCn1cc(Br)ccc1=NC=C(S(=O)(=O)c1ccccc1)S(=O)(=O)c1ccccc1 | 233 to 235
O=C(NCC1CC1)C(c1ccccc1)c1ccccc1 | 130
NC(=O)C(CCCCCOc1cccc([N+](=O)[O-])c1C=O)C1NCCc2ccccc21 (stereo not drawn) | 99 to 100
O=c1c2cnc(N3CCOCC3)nc2sn1CCN1CCCCC1 | 98 to 100
OCCN(Cc1ccccc1)c1nc2ccccc2s1 | 95 to 96
C=Cc1cc(CCNc2ncnc3c(F)ccc(F)c23)ccc1Oc1cc(C(F)(F)F)ccn1 | 86
COc1ccc(C=C2CS(=O)(=O)CC3=C2N=C2SCCN2C3c2ccc(OC)cc2)cc1 (stereo not drawn) | 235 to 240
Clc1ccc(-c2cc(Cl)c3ccccc3n2)cc1Cl | 138 to 140
O=C(NCCCC(F)(F)F)c1nc(-c2ccc(Cl)cc2Cl)c(-c2ccc(Cl)cc2)s1 | 99 to 101
O=[N+]([O-])c1ccccc1-c1ccc(CNc2nc(C(F)(F)F)nc3c2CCCC3)cc1 | 150 to 151
COc1c(C)cc(-c2[nH]c3ccccc3c2C)cc1C | 108 to 110

Compound | melting point [°C]
O=[N+]([O-])c1ccc(CCN2CCN(c3cc(Cl)nnc3Cl)CC2)c([N+](=O)[O-])c1 | 145 to 146
O=C(O)c1ccc2c(c1)CN(C(=O)OCc1ccccc1)C2 | 197 to 199
CSc1nc(Cl)c(C(Cl)Cl)c(Cl)n1 | 66
CN(C)Cc1c[nH]c2ccc(OCc3ccccc3)c(Cl)c12 | 137 to 139
CCCC1c2c(ccc(C(C)=O)c2O)OC1CSc1ccc(C(=O)CCC(=O)O)cc1 (stereo not drawn) | 110 to 112
Cc1ccc(S(=O)(=O)NC(=O)N2CC2C#N)cc1 (stereo not drawn) | 156 to 158
COCCNc1cc(Sc2ccc(Cl)cc2)nc(-c2ccc(OC)cc2)n1 | 117 to 118
Cc1cc(NCc2ccc3oc(-c4ccccc4-c4nnn[nH]4)c(Br)c3c2)n2nccc2n1 | > 250
CCn1c(COC(=O)NC(=O)c2cc(Cl)cc(Cl)c2)nc(C(C)C)c1Sc1cc(Cl)cc(Cl)c1 | 124 to 125
COc1cc(NC(=O)N[C@H]2CCCCNC2=O)c(O)c(C(C)(C)C)c1 | 178 to 179
CC(C)OC(=O)c1cc(N)c(F)c(F)n1 | 167 to 168
CCOC(=O)c1cccc(-c2nc(-c3ccc(C(C)C)cc3)cs2)c1 | 91 to 92
CNC(=O)C=Cc1ccc(C(=O)O)cc1 | 270 to 273
CNc1nc(-c2cccc(-c3ccc(S(C)=O)cc3)c2)c2cc(OC)c(OC)cc2n1 (stereo not drawn) | 153 to 155
CCOC(=O)CN1C(=O)C(NC(=O)Nc2cccc(C)c2)N=C(C)c2cccc(C)c21 (stereo not drawn) | 230 to 231
CCc1nn(Cc2noc(O)n2)c(CC)c1Oc1cc(Cl)cc(Cl)c1 | 94 to 96
N#CSCC(I)=C(I)CSC#N | 190
CCCCCCCCCCCCCCC1Cc2ccc(C(=O)O)cc2N1C (racemic) | 115 to 118
COc1ccc(NC(=O)/C=C/c2c(OC)cc(OC)cc2OC)cc1 | 198 to 200
C=Cc1ccc(OC)c(OC)c1 | 110 to 114
Cc1nc(N2CCN(CC3CC3)C2=O)sc1C(=O)NCc1ccccn1 | 148 to 151
COc1nc2c(C)cccc2c2c1CCN2c1ccccc1C | 107 to 108
CSc1c(C)[nH]c2c(C)cccc12 | 32 to 33
CC(Sc1ccc(Cl)cc1Cl)C(=O)O (racemic) | 95 to 98
COC(=O)c1cc(OCc2ccc(OCc3nc(-c4ccccc4)oc3C)c(OC)c2)nn1-c1ccccc1 | 143 to 144
